In brackets after ≈: the same amount, converted by molar mass.
Tests used:
Assay in all cases: ≥ marks a high value that may be exact or a test limit, other limits are often not marked, values filed in µg/mL are converted to µM
[1] = system: Escherichia coli DH5alpha
[2] = system: Pseudomonas aeruginosa NBRC 13275
[3] = system: Staphylococcus aureus NBRC 13276
[4] = system: Batrachochytrium dendrobatidis
[5] = system: Acinetobacter baumannii ATCC 19606
[6] = system: Candida albicans ATCC 90028
[7] = system: Cryptococcus neoformans var. grubii H99
[8] = system: Escherichia coli ATCC 25922
Escherichia coli K-12 = system: Escherichia coli K-12
[9] = system: Klebsiella pneumoniae ATCC 700603
[10] = system: Pseudomonas aeruginosa ATCC 27853
[11] = system: Staphylococcus aureus ATCC 43300
[12] = system: Staphylococcus aureus JE2
[13] = system: Candida albicans CGMCC 2.2086
[14] = system: Candida parapsilosis CGMCC 2.3989
[15] = system: Candida tropicalis CGMCC 2.1975
[16] = system: Lacticaseibacillus rhamnosus 7469
[17] = system: Lactiplantibacillus plantarum 8014
[18] = system: Staphylococcus aureus ATCC 25923
[19] = system: Staphylococcus aureus ATCC 29213
[20] = system: Staphylococcus epidermidis ATCC 12228
[21] = system: Bacillus cereus ATCC 11778
[22] = system: Bacillus thuringiensis ATCC 10792
[23] = system: Enterococcus faecium CCT 5079
[24] = system: Enterococcus hirae ATCC 10541
[25] = system: Escherichia coli ATCC 11775
[26] = system: Escherichia coli CCT 1457
[27] = system: Micrococcus luteus ATCC 4698
[28] = system: Pseudomonas aeruginosa ATCC 13388
[29] = system: Pseudomonas aeruginosa ATCC 15422
[30] = system: Salmonella enterica subsp. enterica serovar Choleraesuis ATCC 10708
[31] = system: Salmonella enterica subsp. enterica serovar Typhimurium ATCC 14028
[32] = system: Staphylococcus aureus CCT 2580
[33] = system: Staphylococcus aureus CCT 6538
[34] = system: Streptococcus mutans AU159
[35] = system: Streptococcus pneumoniae ATCC 11733
[36] = system: Escherichia coli ATCC 35218
[37] = system: Escherichia coli ATCC 43827
Escherichia coli ESBL 4 = system: Escherichia coli ESBL 4
Escherichia coli ESBL = system: Escherichia coli ESBL

Compound `CC(=O)N[C@@H](C)C(=O)N[C@@H](CCCCN)C(=O)N[C@@H](CCCCN)C(=O)N[C@@H](Cc1ccccc1)C(=O)NCC(=O)N[C@@H](CCCCN)C(=O)N[C@@H](C)C(=O)N[C@@H](Cc1ccccc1)C(=O)N[C@H](C(N)=O)C(C)C` [AKKFGKAFV] has an MIC [1] of at least 200 µM, an MIC [2] of at least 200 µM and an MIC [3] of at least 400 µM.

Compound `CC(C)C[C@H](NC(=O)CN)C(=O)N[C@@H](CC(C)C)C(=O)N[C@@H](C)C(=O)N[C@@H](CO)C(=O)N[C@@H](CC(C)C)C(=O)NCC(=O)N[C@@H](CCCCN)C(=O)N[C@H](C(=O)N[C@@H](Cc1ccccc1)C(=O)NCC(=O)NCC(=O)N[C@@H](Cc1ccc(O)cc1)C(=O)N[C@@H](CC(C)C)C(=O)N[C@@H](C)C(=O)N[C@@H](CCC(=O)O)C(=O)N[C@@H](CCCCN)C(=O)N[C@@H](CC(C)C)C(=O)N[C@@H](CCCCN)C(=O)N1CCC[C@H]1C(=O)N[C@@H](CCCCN)C(=O)O)C(C)C` [GLLASLGKVFGGYLAEKLKPK] has an MIC [4] of at least 200 µM.

`CC[C@H](C)[C@H](NC(=O)[C@@H](NC(=O)[C@H](CO)NC(=O)[C@H](C)NC(=O)[C@@H](NC(=O)[C@H](CCCCN)NC(=O)[C@H](CCCCN)NC(=O)[C@@H](NC(=O)[C@@H](NC(=O)[C@H](CC(=O)O)NC(=O)[C@H](Cc1c[nH]c2ccccc12)NC(=O)[C@H](CC(C)C)NC(=O)CN)C(C)C)[C@@H](C)CC)C(C)C)C(C)C)C(=O)NCC(=O)NCC(=O)N[C@@H](CC(C)C)C(=O)O` [GLWDVIKKVASVIGGL] gave an MIC [5] of 9.67 µM (≈ 16 µg/mL), an MIC [6] of 19.3 µM (≈ 32 µg/mL) and an MIC [7] of 4.83 µM (≈ 8 µg/mL). The MIC [8] was over 19.3 µM, the MIC (Escherichia coli K-12) was 9.67 µM (≈ 16 µg/mL) and the MIC [9] was over 19.3 µM. The MIC [10] was over 19.3 µM, the MIC [11] was 2.42 µM (≈ 4 µg/mL) and the MIC [12] was 4.83 µM (≈ 8 µg/mL).

`CC[C@H](C)[C@H](NC(=O)[C@@H](NC(=O)[C@H](CO)NC(=O)[C@H](C)NC(=O)[C@@H](NC(=O)[C@H](CCCCN)NC(=O)[C@H](CCCN=C(N)N)NC(=O)[C@@H](NC(=O)[C@@H](NC(=O)[C@H](CCCN=C(N)N)NC(=O)[C@H](Cc1c[nH]c2ccccc12)NC(=O)[C@H](CC(C)C)NC(=O)CN)C(C)C)[C@@H](C)CC)C(C)C)C(C)C)C(=O)NCC(=O)NCC(=O)N[C@@H](CC(C)C)C(=O)O` [GLWRVIRKVASVIGGL] gave an MIC [5] of 1.16 µM (≈ 2 µg/mL), an MIC [6] of 18.6 µM (≈ 32 µg/mL) and an MIC [7] of 1.16 µM (≈ 2 µg/mL). The MIC [8] was 2.32 µM (≈ 4 µg/mL), the MIC (Escherichia coli K-12) was 18.6 µM (≈ 32 µg/mL) and the MIC [9] was 4.64 µM (≈ 8 µg/mL). It also gave an MIC [10] of over 18.6 µM, an MIC [11] of 2.32 µM (≈ 4 µg/mL) and an MIC [12] of 9.28 µM (≈ 16 µg/mL).

With `CC[C@H](C)[C@H](N)C(=O)N[C@@H](Cc1cnc[nH]1)C(=O)N[C@@H](Cc1cnc[nH]1)C(=O)N[C@H](C(=O)N[C@@H](Cc1cnc[nH]1)C(=O)N[C@@H](Cc1cnc[nH]1)C(=O)N[C@H](C(=O)N[C@H](C(=O)N[C@@H](Cc1cnc[nH]1)C(=O)N[C@@H](Cc1cnc[nH]1)C(=O)N[C@H](C(=O)N[C@@H](Cc1cnc[nH]1)C(=O)N[C@@H](Cc1cnc[nH]1)C(=O)N[C@H](C(=O)N[C@H](C(=O)N[C@@H](Cc1cnc[nH]1)C(=O)N[C@@H](Cc1cnc[nH]1)C(=O)N[C@H](C(=O)N[C@@H](Cc1cnc[nH]1)C(=O)N[C@@H](Cc1cnc[nH]1)C(=O)N[C@H](C(N)=O)[C@@H](C)CC)[C@@H](C)CC)[C@@H](C)CC)[C@@H](C)CC)[C@@H](C)CC)[C@@H](C)CC)[C@@H](C)CC)[C@@H](C)CC` [IHHIHHIIHHIHHIIHHIHHI] the MIC [13] was 2 µM (≈ 5.36 µg/mL), the MIC [14] was 2 µM (≈ 5.36 µg/mL) and the MIC [15] was 1 µM (≈ 2.68 µg/mL). It also gave an MIC [16] of at least 64 µM, an MIC [17] of at least 64 µM and an MIC [18] of over 64 µM. The MIC [19] was over 64 µM and the MIC [20] was over 64 µM.

Compound `CC[C@H](C)[C@H](N)C(=O)N[C@@H](CC(N)=O)C(=O)N[C@@H](Cc1c[nH]c2ccccc12)C(=O)N[C@@H](CC(C)C)C(=O)N[C@@H](CCCCN)C(=O)N[C@H](C(=O)N[C@@H](CCCCN)C(=O)N[C@@H](CCCCN)C(=O)N[C@@H](CCCCN)C(=O)N[C@H](C(=O)N[C@@H](C)C(=O)NCC(=O)N[C@@H](CCSC)C(=O)N[C@@H](CC(C)C)C(N)=O)C(C)C)[C@@H](C)CC` [INWLKIKKKVAGML] has an MIC [21] of at least 152 µM, an MIC [22] of at least 76.1 µM and an MIC [6] of at least 38.1 µM. It also gave an MIC [23] of 4.87 µM (≈ 8 µg/mL), an MIC [24] of 18.9 µM (≈ 31 µg/mL) and an MIC [25] of 18.9 µM (≈ 31 µg/mL). For the same compound, the MIC [8] was 18.9 µM (≈ 31 µg/mL), the MIC [26] was 4.87 µM (≈ 8 µg/mL) and the MIC [27] was 2.44 µM (≈ 4 µg/mL). For the same compound, the MIC [28] was at least 152 µM, the MIC [29] was at least 76.1 µM and the MIC [30] was at least 304 µM. The MIC [31] was 18.9 µM (≈ 31 µg/mL), the MIC [18] was 1.22 µM (≈ 2 µg/mL) and the MIC [32] was 4.87 µM (≈ 8 µg/mL). The MIC [33] was 18.9 µM (≈ 31 µg/mL), the MIC [20] was 2.44 µM (≈ 4 µg/mL) and the MIC [34] was 2.44 µM (≈ 4 µg/mL). For the same compound, the MIC [35] was 1.22 µM (≈ 2 µg/mL).

`CC[C@H](C)[C@H](NC(=O)[C@H](Cc1ccc(O)cc1)NC(=O)[C@H](CCC(N)=O)NC(=O)[C@H](CC(C)C)NC(=O)[C@H](C)NC(=O)[C@H](CCCCN)NC(=O)[C@H](CCCCN)NC(=O)[C@H](CCSC)NC(=O)[C@@H](N)CCCCN)C(=O)N[C@@H](CCCCN)C(=O)N[C@@H](CC(C)C)C(=O)N[C@@H](CC(C)C)C(=O)N[C@@H](CCCCN)C(=O)N[C@@H](CCC(=O)O)C(N)=O` [KMKKALQYIKLLKE] gave an MIC [25] of at least 100 µM, an MIC [8] of 100 µM (≈ 173 µg/mL) and an MIC [36] of 25 µM (≈ 43.3 µg/mL). For the same compound, the MIC [37] was 25 µM (≈ 43.3 µg/mL), the MIC (Escherichia coli ESBL 4) was at least 100 µM and the MIC (Escherichia coli ESBL) was at least 100 µM. The MIC [10] was over 100 µM.

`CC[C@H](C)[C@H](NC(=O)[C@H](CC(C)C)NC(=O)[C@@H]1CCCN1C(=O)[C@H](CC(C)C)NC(=O)[C@H](CCCCN)NC(=O)[C@H](CCCCN)NC(=O)[C@H](Cc1ccccc1)NC(=O)[C@H](CC(C)C)NC(=O)[C@H](CCCCN)NC(=O)[C@H](Cc1c[nH]c2ccccc12)NC(=O)[C@@H](N)CCCCN)C(=O)NCC(=O)N[C@@H](CCCN=C(N)N)C(=O)N[C@H](C(=O)N[C@@H](CC(C)C)C(N)=O)C(C)C` [KWKLFKKLPLIGRVL] gave an MIC [4] of at least 100 µM.

From DBAASP
